Data as given in the NIST ThermoML archive (doi:10.1021/acs.jced.7b01053).
Values joined by “and” are separate entries in the source; they are usually repeats but may differ in a detail not shown here. Equal values may be shown once.

Test: mn = molality of the nth substance listed, in mol/kg
Details: 293 K, 100 kPa, Liquid, Alternating current cell with electrodes

CCCCC(=O)O.OCCNCCO [diethanolamine pentanoate] + O
Details	electrical conductivity [S/m]
m1 = 0.01462	0.055
m1 = 0.01705	0.064
m1 = 0.03093	0.108
m1 = 0.03218	0.116
m1 = 0.04874	0.161
m1 = 0.0491	0.168
m1 = 0.06476	0.204
m1 = 0.06559	0.215
m1 = 0.08109	0.279
m1 = 0.08267	0.268
m1 = 0.09793	0.328
m1 = 0.09939	0.312
m1 = 0.1159	0.375
m1 = 0.117	0.365
m1 = 0.1326	0.42
m1 = 0.133	0.408
m1 = 0.1488	0.449
m1 = 0.1507	0.47
m1 = 0.163	0.486
m1 = 0.1668	0.512
m1 = 0.1779	0.524
m1 = 0.1838	0.557
m1 = 0.1916	0.526
m1 = 0.1994	0.595
m1 = 0.2058	0.558
m1 = 0.2152	0.634
m1 = 0.2197	0.593
m1 = 0.2297	0.669
m1 = 0.2336	0.624
m1 = 0.2447	0.706
m1 = 0.2467	0.655
m1 = 0.2584	0.739
m1 = 0.26	0.685
m1 = 0.2721	0.767
m1 = 0.2723	0.711
m1 = 0.2848	0.739
m1 = 0.2851	0.795
m1 = 0.2965	0.755
m1 = 0.2976	0.822
m1 = 0.3079	0.789
m1 = 0.3096	0.848
m1 = 0.3188	0.811
m1 = 0.3214	0.874
m1 = 0.3321	0.896
m1 = 0.3396	0.835
m1 = 0.3428	0.918
m1 = 0.3494	0.854
m1 = 0.3527	0.94
m1 = 0.3585	0.876
m1 = 0.3625	0.96
m1 = 0.3675	0.893
m1 = 0.3716	0.979
m1 = 0.376	0.914
m1 = 0.3806	0.999
m1 = 0.3844	0.925
m1 = 0.389	1.01
m1 = 0.3921	0.925
m1 = 0.3973	1.03
m1 = 0.3997	0.925
m1 = 0.4069	0.973
m1 = 0.4446	0.991

CCC(=O)[O-].[NH3+]CCO [2-hydroxyethan-1-aminium propionate] + O
Details	electrical conductivity
m1 = 0.01786	0.107 S/m
m1 = 0.022	0.116 S/m
m1 = 0.03491	0.198 S/m
m1 = 0.04447	0.218 S/m
m1 = 0.05416	0.312 S/m
m1 = 0.06841	0.338 S/m
m1 = 0.0728	0.4 S/m
m1 = 0.09126	0.43 S/m
m1 = 0.0929	0.485 S/m
m1 = 0.1121	0.574 S/m
m1 = 0.1137	0.521 S/m
m1 = 0.1322	0.658 S/m
m1 = 0.1373	0.612 S/m
m1 = 0.1504	0.74 S/m
m1 = 0.1594	0.695 S/m
m1 = 0.1692	0.821 S/m
m1 = 0.1822	0.78 S/m
m1 = 0.188	0.897 S/m
m1 = 0.2038	0.845 S/m
m1 = 0.2067	0.982 S/m
m1 = 0.2263	0.921 S/m
m1 = 0.2328	1.08 S/m
m1 = 0.2472	0.991 S/m
m1 = 0.2532	1.16 S/m
m1 = 0.268	1.06 S/m
m1 = 0.2729	1.24 S/m
m1 = 0.2877	1.12 S/m
m1 = 0.2905	1.3 S/m
m1 = 0.3074	1.18 S/m and 1.37 S/m
m1 = 0.3237	1.43 S/m
m1 = 0.3251	1.24 S/m
m1 = 0.3388	1.48 S/m
m1 = 0.3427	1.29 S/m
m1 = 0.3534	1.53 S/m
m1 = 0.3594	1.34 S/m
m1 = 0.3669	1.58 S/m
m1 = 0.3755	1.39 S/m
m1 = 0.3798	1.63 S/m
m1 = 0.3905	1.43 S/m
m1 = 0.3917	1.67 S/m
m1 = 0.4032	1.71 S/m
m1 = 0.4055	1.48 S/m
m1 = 0.4138	1.74 S/m
m1 = 0.4195	1.51 S/m
m1 = 0.424	1.78 S/m
m1 = 0.4334	1.55 S/m
m1 = 0.4465	1.59 S/m
m1 = 0.4591	1.62 S/m
m1 = 0.4709	1.65 S/m
m1 = 0.4825	1.67 S/m
m1 = 0.5351	1.82 S/m
m1 = 0.5473	1.85 S/m
m1 = 0.5594	1.89 S/m
m1 = 0.5705	1.93 S/m

CCC(=O)[O-].C[NH2+]CCO [2-hydroxy-N-methylethanaminium propionate] + O
Details	electrical conductivity [S/m]
m1 = 0.01487	0.066
m1 = 0.0155	0.073
m1 = 0.03159	0.133
m1 = 0.03183	0.139
m1 = 0.04881	0.195
m1 = 0.0489	0.202
m1 = 0.06492	0.266
m1 = 0.06527	0.277
m1 = 0.08046	0.329
m1 = 0.08214	0.323
m1 = 0.09748	0.384
m1 = 0.09889	0.378
m1 = 0.1136	0.436
m1 = 0.1159	0.427
m1 = 0.1305	0.487
m1 = 0.1324	0.476
m1 = 0.1464	0.536
m1 = 0.1495	0.523
m1 = 0.1622	0.604
m1 = 0.1651	0.568
m1 = 0.1776	0.648
m1 = 0.1814	0.613
m1 = 0.1935	0.69
m1 = 0.1966	0.654
m1 = 0.2081	0.727
m1 = 0.2121	0.694
m1 = 0.223	0.764
m1 = 0.2264	0.702
m1 = 0.237	0.798
m1 = 0.2408	0.721
m1 = 0.25	0.829
m1 = 0.2542	0.723
m1 = 0.2632	0.872
m1 = 0.2677	0.786
m1 = 0.2756	0.908
m1 = 0.28	0.814
m1 = 0.2879	0.933
m1 = 0.2922	0.834
m1 = 0.2994	0.957
m1 = 0.3036	0.86
m1 = 0.3106	0.98
m1 = 0.3149	0.906
m1 = 0.3211	1
m1 = 0.3255	0.923
m1 = 0.3317	1.02
m1 = 0.3357	0.946
m1 = 0.3415	1.04
m1 = 0.3454	0.967
m1 = 0.3511	1.06
m1 = 0.355	0.987
m1 = 0.3602	1.08
m1 = 0.364	1.01
m1 = 0.3691	1.09
m1 = 0.3726	1.03
m1 = 0.3774	1.11
m1 = 0.3808	1.05
m1 = 0.3856	1.13
m1 = 0.3885	1.05
m1 = 0.3933	1.15
m1 = 0.396	1.07
m1 = 0.4009	1.17
m1 = 0.4032	1.09
m1 = 0.4079	1.19
m1 = 0.4098	1.09
m1 = 0.4148	1.21
m1 = 0.4165	1.11
m1 = 0.4227	1.12
